In US20040214305A1, “Method of improving biomass yield of lactic acid bacterial cultures” (DANMARKS TEKNISKE UNIVERSITET, priority 2000, published 2004):

Legend:
[1] = system: commercial mixed strain starter culture of Lactococcus lactis; assay: Biomass production in pH controlled aerobic batch in complex media with haemin; format: cell-based; conditions: for Yield (OD600nm): haemin, aerobic pH controlled batch
Procedure: A commercial mixed strain starter culture of Lactococcus lactis was applied in this Example. The cultivations were performed on complex media containing hydrolysed skimmed milk powder, yeast extract, essential vitamins and minerals and either lactose or maltose as carbon source. Furthermore, the media were supplemented with haemin. Medium 1 and Medium 2 were optimised with respect to the cellular yield on respectively lactose and maltose as carbon source. All media were adjusted to an initial pH of 6.5.
The cultivations were inoculated with concentrated cell suspensions of the L. lactis culture. Air was sparged through the cultivation broths at a rate sufficient to maintain the dissolved oxygen concentration above 50% of saturation level. The cultivations were conducted at a temperature of 30° C. The cultures were allowed to acidify to pH 6.2, and subsequently maintained at pH 6.2 by controlled addition of 13.4 N NH4OH. Samples were collected throughout the cultivations for measurements of the optical density using a Hitachi U-1100 Spectrophotometer at […].

[2] = system: phospho-β-D-galactosidase in FHCY-1 cells; assay: Phospho-beta-galactosidase activity (ONPG-P substrate) as lac operon expression; format: cell-based, Lactococcus lactis subsp. lactis; conditions: for Specific activity of phospho-β-D-galactosidase: FHCY-1 cells grown in M17 on the carbon/energy source, average of two determinations
Procedure: The expression of the lac operon in the cells grown on the various sugars was also tested by measuring the activity of the enzyme phospho-beta-galactosidase. Samples were taken from the cultures in FIG. 2 and processed as described previously (Jensen and Hammer, 1998). Subsequently, the activity of phospho-beta-galactosidase was determined as the standard determination of beta-galactosidase, except that o-nitrophenyl-beta-D-galactopyranoside 6-phosphate (ONPG-P) was used as the chromogenic substrate instead of o-nitrophenyl-beta-D-galactopyranoside (ONPG).

[3] = system: Lactococcus lactis subsp lactis FHCY-1; assay: Growth in M17 batch cultures supplemented with different sugars; format: cell-based; conditions: FHCY-1, M17 medium
Procedure: Therefore, the growth of the starter culture strain, FHCY-1, was tested on various sugars.

[4] = system: Lactococcus lactis subsp. cremoris PJ4662; assay: Biomass yield (OD600) in aerobic batch culture in defined SA medium; format: cell-based; conditions: for Biomass: PJ4662, batch, maltose alone = 100; for Biomass / Increase of yield of biomass relative to MSA: SA medium with 0.1% maltose; for Increase of yield of biomass relative to MSA / Increase of yield of biomass relative to GSA: PJ4662, aerobic; for Increase of yield of biomass relative to GSA: SA medium with growth limiting glucose
Procedure: Wild type L. lactis subsp. cremoris PJ4662, a derivative of the strain MG1363 containing the pAK80 plasmid (Israelsen et al., 1995) was grown aerobically in defined SA medium (Jensen and Hammer, 1993) supplemented with a growth limiting concentration of glucose (GSA), and in GSA medium further supplemented with haemin (GSA+H), heamin+lipoic acid (GSA+H+L) and: lipoic acid alone (GSA+L). The biomass yield was estimated by measuring the optical density at 600 nm (OD600). The yield of biomass increased by about 12% relative to the yield obtained with GSA when the medium was supplemented with haemin, by about 25% using the haemin+lipoic acid supplement and by about 7% using lipoic acid alone.
L. lactis subsp. cremoris PJ4662 was grown aerobically in defined SA medium (Jensen and Hammer, 1993) supplemented with a growth-limiting concentration of 0.1% maltose (MSA), and in MSA medium further supplemented with haemin (MSA+H), haemin+lipoic acid (MSA+H+L) and lipoic acid alone (MSA+L). The biomass yield was estimated by measuring the optical density at 600 nm (OD600), see Table 1.2 below.
It was also tested whether the extent of aeration affected the biomass yield and the amount of ATP produced by oxidative phosphorylation by performing an experiment (Table 1.3) using more vigorous aeration as compared to the experiment illustrated in Table 1.2.
Wild type L. lactis subsp. cremoris PJ4662, a derivative of the strain MG1363 containing the pAK80 plasmid (Israelsen et al., 1995) was grown aerobically in defined SA medium (Jensen and Hammer, 1993) supplemented with a growth limiting concentration of galactose and lipoic acid (GaSAL), and in GaSAL medium further supplemented with haemin+lipoic acid (GaSALH). The biomass yield was estimated by measuring the optical density at 600 nm (OD600). The yield of biomass increased by 30% relative to the yield obtained with GaSAL when the medium was supplemented with haemin (GaSALH). A chemostat experiment was also performed with cells grown on galactose. Here the biomass increased by 75% compared to the biomass obtained in GaSAL medium.

atp mutant strain PJ4699 = assay: Biomass yield (OD600) of atp mutant strain with lower H+-ATPase expression; format: cell-based, Lactococcus lactis; conditions: PJ4699, no nisin
Text: In order to investigate whether or not the surplus of ATP that was found in the cultures cultivated in maltose medium (with haemin and lipoic acid) is due to oxidative phosphorylation it was decided to compare the biomass yield of a wild type strain and a strain which, relative to the wild type strain, has a lower expression of the H^+-ATPase complex. For that purpose a mutant strain of the MG1363 strain, PJ4699, was used. In this mutant strain the native promoter of the chromosomal atp operon has been replaced with the nisA promoter (de Ruyter et al., 1996).
This mutant therefore permitted an experiment to be performed where the biomass yield of the wild type strain and the H^+-ATPase mutant which had lower expression of the H^+-ATPase was compared. If ATP is synthesised by the H^+-ATPase complex, then the biomass yield on maltose should be lower in the mutant cells having lower activity of this enzyme, under conditions where oxidative phosphorylation is observed.

[5] = system: Lactococcus lactis subsp. cremoris; assay: Intracellular [ATP]/[ADP] ratio in exponentially growing aerobic cultures; format: cell-based; conditions: MSA+L+H versus MSA+L
Procedure: The intracellular concentrations of ATP and ADP was measured to test whether the addition of a porphyrin to a culture growing on a poor carbon/energy source would increase the [ATP]/[ADP] ratio as might be expected if the ATP synthase starts to produce ATP. Samples were taken from exponentially growing cultures of Lactococcus lactis subsp. cremoris at cell densities between 0.2 and 0.8 (OD600). The total intracellular metabolite content were extracted as described previously (Andersen et al., 2001) and the concentrations of ATP and ADP were determined as described in Jensen et al. (1 993).

[6] = Medium 1 (optimised for growth on lactose)

Row | Compound | Yield (OD600nm) [1, 6] | Specific activity of phospho-β-D-galactosidase [2] | Increase of yield of biomass relative to MSA [4] | Increase of yield of biomass relative to GSA [4] | other results
1 | OC[C@H]1O[C@@H](O[C@H]2[C@H](O)[C@@H](O)C(O)O[C@@H]2CO)[C@H](O)[C@@H](O)[C@H]1O (stereo partly drawn) [Lactose, lactose] | 48 OD600nm | 149.5 | – | – | –
2 | O=C[C@H](O)[C@@H](O)[C@@H](O)[C@H](O)CO [Galactose, galactose] | – | 172.2 | – | – | Reduction of growth compared to lactose [3]: approximately 20%; Increase of phospho-β-D-galactosidase activity compared to lactose ([2]; FHCY-1 cells): 20%
3 | OC[C@H]1O[C@H](O[C@H]2[C@H](O)[C@@H](O)[C@H](O)O[C@@H]2CO)[C@H](O)[C@@H](O)[C@@H]1O [maltose] | 60 OD600nm | 37.5 | – | – | Biomass ([4]; moderate aeration): 100%; Biomass ([4]; vigorous aeration): 100%; Yield (OD600nm) ([1]; Medium 2 (optimised for growth on maltose)): 96 OD600nm; Increase of final yield of biomass compared to the lactose culture ([1]; medium 1, haemin, aerobic): 25%; Yield of biomass compared to optimised lactose medium ([1]; medium 2, haemin, aerobic): two-fold higher
4 | O=C(O)CCCC[C@@H]1CCSS1 (racemic) [lipoic acid] | – | – | 48% | about 7% | –
5 | haemin | – | – | 33% | about 12% | Growth of the nisin-dependent atp mutant without nisin (atp mutant strain PJ4699): capable of growth without nisin; Growth rate increase of haemin culture versus culture without haemin [5]: 30%
